{"source": "ChEMBL document CHEMBL4184185", "about": "“Dihydrobenzisoxazole-4-one compounds are novel selective inhibitors of aldosterone synthase (CYP11B2) with in vivo activity” (Bioorg Med Chem Lett, 2018)", "key": {"[1]": {"assay": "Inhibition of cynomolgus monkey adrenal mitochondrial CYP11B2 using corticosterone as substrate after 60 mins in presence of NADPH by mass spectrometric analysis"}, "[2]": {"assay": "Inhibition of cynomolgus monkey adrenal mitochondrial CYP11B1 using 11-deoxycortisol as substrate after 90 mins in presence of NADPH by mass spectrometric analysis"}, "Macaca fascicularis": {"species_on_record": "Macaca fascicularis", "assay": "Selectivity index, ratio of IC50 for cynomolgus monkey adrenal mitochondrial CYP11B1 to IC50 for cynomolgus monkey adrenal mitochondrial CYP11B2"}, "[3]": {"target": "T1, Steroid 17-alpha-hydroxylase/17,20 lyase (Homo sapiens, UniProt P05093)", "T1 sequence (P05093 whole entry)": "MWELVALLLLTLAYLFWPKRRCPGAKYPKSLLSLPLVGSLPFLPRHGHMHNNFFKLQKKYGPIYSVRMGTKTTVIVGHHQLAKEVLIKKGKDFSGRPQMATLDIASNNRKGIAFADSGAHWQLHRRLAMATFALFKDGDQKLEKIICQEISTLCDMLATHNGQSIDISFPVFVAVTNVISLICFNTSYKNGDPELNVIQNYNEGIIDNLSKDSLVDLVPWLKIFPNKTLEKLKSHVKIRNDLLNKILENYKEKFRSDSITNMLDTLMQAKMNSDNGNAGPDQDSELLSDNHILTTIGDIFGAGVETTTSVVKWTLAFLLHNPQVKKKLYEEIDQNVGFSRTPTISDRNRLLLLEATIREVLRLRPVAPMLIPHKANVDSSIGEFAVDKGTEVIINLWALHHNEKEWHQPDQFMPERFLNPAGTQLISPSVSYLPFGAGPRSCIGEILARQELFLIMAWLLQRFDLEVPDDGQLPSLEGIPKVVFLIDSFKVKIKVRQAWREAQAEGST", "assay": "Inhibition of CYP17A1 (unknown origin)", "assay_type": "ADME"}, "Aromatase [4]": {"target": "T2, Aromatase (Homo sapiens, UniProt P11511)", "T2 sequence (P11511 whole entry)": "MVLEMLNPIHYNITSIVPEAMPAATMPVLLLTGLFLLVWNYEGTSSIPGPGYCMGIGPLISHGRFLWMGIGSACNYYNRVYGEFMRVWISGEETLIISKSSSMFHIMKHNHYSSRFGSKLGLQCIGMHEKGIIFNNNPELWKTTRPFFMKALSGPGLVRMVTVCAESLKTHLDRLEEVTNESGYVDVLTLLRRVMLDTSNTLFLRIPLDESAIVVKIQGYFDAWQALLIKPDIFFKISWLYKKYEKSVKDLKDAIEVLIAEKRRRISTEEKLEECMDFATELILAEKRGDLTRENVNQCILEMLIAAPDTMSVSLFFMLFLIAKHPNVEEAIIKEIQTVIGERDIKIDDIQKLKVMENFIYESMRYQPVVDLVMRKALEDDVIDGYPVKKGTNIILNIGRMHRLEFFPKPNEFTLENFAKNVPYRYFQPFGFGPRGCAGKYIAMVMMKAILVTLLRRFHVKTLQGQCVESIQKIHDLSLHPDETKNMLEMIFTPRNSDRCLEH", "assay": "Inhibition of CYP19A1 (unknown origin)"}, "Aromatase [5]": {"target": "T2, Aromatase", "assay": "Inhibition of CYP19A1 (unknown origin) at 20 uM"}, "Cytochrome P450 2C9": {"target": "Cytochrome P450 2C9 (Homo sapiens, UniProt P11712)", "sequence (P11712 whole entry)": "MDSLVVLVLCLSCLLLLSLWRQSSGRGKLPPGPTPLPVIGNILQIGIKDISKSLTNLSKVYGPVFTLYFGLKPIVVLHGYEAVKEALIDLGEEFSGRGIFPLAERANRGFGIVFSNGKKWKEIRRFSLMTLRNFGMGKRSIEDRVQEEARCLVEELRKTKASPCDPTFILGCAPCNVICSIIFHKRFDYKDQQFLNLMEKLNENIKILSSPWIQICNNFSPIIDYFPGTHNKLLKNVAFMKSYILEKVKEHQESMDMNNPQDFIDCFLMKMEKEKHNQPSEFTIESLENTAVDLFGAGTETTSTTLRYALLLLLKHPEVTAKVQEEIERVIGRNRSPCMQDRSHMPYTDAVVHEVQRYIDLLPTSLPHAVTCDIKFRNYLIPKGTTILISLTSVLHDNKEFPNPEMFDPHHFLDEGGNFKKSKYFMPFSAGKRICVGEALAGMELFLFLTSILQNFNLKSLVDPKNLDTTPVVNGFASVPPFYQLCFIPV", "assay": "Inhibition of CYP2C9 (unknown origin) at 30 uM", "assay_type": "ADME"}, "Cytochrome P450 2D6": {"target": "Cytochrome P450 2D6 (Homo sapiens, UniProt P10635)", "sequence (P10635 whole entry)": "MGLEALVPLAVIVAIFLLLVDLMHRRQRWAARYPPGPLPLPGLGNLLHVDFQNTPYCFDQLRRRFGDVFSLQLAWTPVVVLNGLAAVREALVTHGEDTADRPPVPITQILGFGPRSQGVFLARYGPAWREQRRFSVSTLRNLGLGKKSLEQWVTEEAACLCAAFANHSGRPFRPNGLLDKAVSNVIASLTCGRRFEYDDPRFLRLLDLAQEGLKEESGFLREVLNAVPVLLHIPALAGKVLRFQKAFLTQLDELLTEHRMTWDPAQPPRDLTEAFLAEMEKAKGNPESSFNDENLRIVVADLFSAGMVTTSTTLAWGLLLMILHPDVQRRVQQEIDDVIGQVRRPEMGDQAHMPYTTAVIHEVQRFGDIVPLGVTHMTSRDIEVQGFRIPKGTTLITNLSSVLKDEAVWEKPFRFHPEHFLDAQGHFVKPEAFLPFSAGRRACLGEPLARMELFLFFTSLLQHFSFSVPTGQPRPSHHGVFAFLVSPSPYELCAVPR", "assay": "Inhibition of CYP2D6 (unknown origin) at 30 uM", "assay_type": "ADME"}, "Cytochrome P450 3A4": {"target": "Cytochrome P450 3A4 (Homo sapiens, UniProt P08684)", "sequence (P08684 whole entry)": "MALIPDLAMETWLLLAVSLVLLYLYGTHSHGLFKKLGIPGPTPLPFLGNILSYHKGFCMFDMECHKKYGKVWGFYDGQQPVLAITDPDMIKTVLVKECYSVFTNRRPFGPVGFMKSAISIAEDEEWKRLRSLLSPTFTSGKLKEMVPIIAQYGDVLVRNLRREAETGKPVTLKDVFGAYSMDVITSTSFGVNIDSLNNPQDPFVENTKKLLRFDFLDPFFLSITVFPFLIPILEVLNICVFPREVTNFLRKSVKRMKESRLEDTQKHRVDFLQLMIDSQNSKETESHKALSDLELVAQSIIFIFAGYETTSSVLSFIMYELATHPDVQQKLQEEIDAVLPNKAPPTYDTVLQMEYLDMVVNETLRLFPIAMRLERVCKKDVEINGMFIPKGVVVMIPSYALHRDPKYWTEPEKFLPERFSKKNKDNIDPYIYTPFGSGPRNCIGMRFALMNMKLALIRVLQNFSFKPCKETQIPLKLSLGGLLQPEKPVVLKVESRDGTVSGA", "assay": "Inhibition of CYP3A4 (unknown origin) at 30 uM", "assay_type": "ADME"}, "[6]": {"assay": "Clearance in human liver microsomes relative to hepatic blood flow", "assay_type": "ADME, microsome", "details": "read-out: CLH; call rule not given here"}, "[7]": {"assay": "Clearance in human hepatocytes relative to hepatic blood flow", "assay_type": "ADME, cell-based, Hepatocyte", "details": "read-out: CLH"}, "[8]": {"assay": "Clearance in Wistar Han rat hepatocytes relative to hepatic blood flow", "assay_type": "ADME, cell-based, Hepatocyte", "details": "read-out: CLH"}, "[9]": {"assay": "Clearance in cynomolgus monkey hepatocytes relative to hepatic blood flow", "assay_type": "ADME, cell-based, Macaca fascicularis, Hepatocyte", "details": "read-out: CLH"}, "[10]": {"assay": "Clearance in Beagle dog hepatocytes relative to hepatic blood flow", "assay_type": "ADME, cell-based, Canis lupus familiaris, Hepatocyte", "details": "read-out: CLH"}, "Rattus norvegicus": {"test_system": "Rattus norvegicus", "assay": "Clearance in iv dosed Wistar Han rat relative to hepatic blood flow", "assay_type": "ADME, organism-based", "details": "in vivo"}, "Cynomolgus monkey [11]": {"test_system": "Cynomolgus monkey", "assay": "Clearance in iv dosed cynomolgus monkey relative to hepatic blood flow", "assay_type": "ADME, organism-based, Macaca fascicularis", "details": "in vivo"}, "Canis familiaris": {"test_system": "Canis familiaris", "assay": "Clearance in iv dosed Beagle dog relative to hepatic blood flow", "assay_type": "ADME, organism-based, Canis lupus familiaris", "details": "in vivo"}, "[12]": {"assay": "Oral bioavailability in Wistar Han rat", "assay_type": "ADME, organism-based", "details": "in vivo"}, "[13]": {"assay": "Oral bioavailability in cynomolgus monkey", "assay_type": "ADME, organism-based, Macaca fascicularis", "details": "in vivo"}, "[14]": {"assay": "Oral bioavailability in Beagle dog", "assay_type": "ADME, organism-based, Canis lupus familiaris", "details": "in vivo"}, "Cynomolgus monkey [15]": {"test_system": "Cynomolgus monkey", "assay": "In vivo inhibition of ACTH-stimulated aldosterone level in cynomolgus monkey assessed as change in plasma aldosterone AUC (0 to 3 hrs) at 0.1 mg/kg, iv administered 5 mins before ACTH challenge relative to control", "assay_type": "functional, Macaca fascicularis", "parameters": "scale not given: the % may be the effect or the level left"}, "Cynomolgus monkey [16]": {"test_system": "Cynomolgus monkey", "assay": "In vivo inhibition of ACTH-stimulated aldosterone level in cynomolgus monkey assessed as change in plasma aldosterone AUC (0 to 3 hrs) at 1 mg/kg, iv administered 5 mins before ACTH challenge relative to control", "assay_type": "functional, Macaca fascicularis", "parameters": "scale not given: the % may be the effect or the level left"}, "Cynomolgus monkey [17]": {"test_system": "Cynomolgus monkey", "assay": "In vivo inhibition of ACTH-stimulated aldosterone level in cynomolgus monkey assessed as change in plasma aldosterone AUC (0 to 3 hrs) at 8 mg/kg, iv administered 5 mins before ACTH challenge relative to control", "assay_type": "functional, Macaca fascicularis", "parameters": "scale not given: the % may be the effect or the level left"}, "Cynomolgus monkey [18]": {"test_system": "Cynomolgus monkey", "assay": "In vivo inhibition of ACTH-stimulated aldosterone level in iv dosed cynomolgus monkey assessed as change in plasma aldosterone AUC (0 to 3 hrs) administered 5 mins before ACTH challenge", "assay_type": "functional, organism-based", "details": "Macaca fascicularis"}, "[19]": {"assay": "Plasma concentration in ACTH-stimulated cynomolgus monkey at 0.1 mg/kg, iv administered 5 mins before ACTH challenge measured at 15 mins post dose", "assay_type": "ADME, organism-based, Macaca fascicularis"}, "[20]": {"assay": "Unbound plasma concentration in ACTH-stimulated cynomolgus monkey at 0.1 mg/kg, iv administered 5 mins before ACTH challenge measured at 15 mins post dose", "assay_type": "ADME, organism-based, Macaca fascicularis", "details": "in vivo, 0.25 h"}, "[21]": {"assay": "Unbound plasma concentration in ACTH-stimulated cynomolgus monkey at 0.1 mg/kg, iv administered 5 mins before ACTH challenge measured after 3 hrs", "assay_type": "ADME, organism-based, Macaca fascicularis", "details": "in vivo"}, "[22]": {"assay": "Plasma concentration in ACTH-stimulated cynomolgus monkey at 0.1 mg/kg, iv administered 5 mins before ACTH challenge measured after 3 hrs", "assay_type": "ADME, organism-based, Macaca fascicularis"}, "Cynomolgus monkey [23]": {"test_system": "Cynomolgus monkey", "assay": "Effect on ACTH-stimulated plasma cortisol level in cynomolgus monkey up to 8 mg/kg, iv administered 5 mins before ACTH challenge measured after 3 hrs", "assay_type": "ADME, organism-based, Macaca fascicularis", "details": "in vivo"}, "[24]": {"assay": "Plasma concentration in ACTH-stimulated cynomolgus monkey at 8 mg/kg, iv administered 5 mins before ACTH challenge measured at 15 mins post dose", "assay_type": "ADME, organism-based, Macaca fascicularis"}, "[25]": {"assay": "Unbound plasma concentration in ACTH-stimulated cynomolgus monkey at 8 mg/kg, iv administered 5 mins before ACTH challenge measured at 15 mins post dose", "assay_type": "ADME, organism-based, Macaca fascicularis", "details": "in vivo, 0.25 h"}}, "data": [{"smiles": "CN(CCO)C(=O)c1ccc(Cc2onc3c2C(=O)CC(C)(C)C3)cc1", "values": [{"measurement": "IC50", "setting": "[1]", "result": 0.092, "unit": "µM"}, {"measurement": "pIC50", "setting": "[1]", "result": 7}, {"measurement": "pIC50", "setting": "[2]", "result": 5}, {"measurement": "Ratio IC50", "setting": "Macaca fascicularis", "result": 100}, {"measurement": "IC50", "setting": "[3]", "result": "> 31.6", "unit": "µM"}, {"measurement": "IC50", "setting": "Aromatase [4]", "result": "> 31.6", "unit": "µM"}, {"measurement": "inhibition (INH)", "setting": "Aromatase [5]", "result": "Not Active"}, {"measurement": "inhibition (INH)", "setting": "Cytochrome P450 2C9", "result": "Not Active"}, {"measurement": "inhibition (INH)", "setting": "Cytochrome P450 2D6", "result": "Not Active"}, {"measurement": "inhibition (INH)", "setting": "Cytochrome P450 3A4", "result": "Not Active"}, {"measurement": "hepatic extraction ratio", "setting": "[6]", "result": "< 0.24"}, {"measurement": "hepatic extraction ratio", "setting": "[7]", "result": "< 0.21"}, {"measurement": "hepatic extraction ratio", "setting": "[8]", "result": 0.52}, {"measurement": "hepatic extraction ratio", "setting": "[9]", "result": 0.34}, {"measurement": "hepatic extraction ratio", "setting": "[10]", "result": "< 0.3"}, {"measurement": "CL", "setting": "Rattus norvegicus", "result": 24, "unit": "%"}, {"measurement": "CL", "setting": "Cynomolgus monkey [11]", "result": 32, "unit": "%"}, {"measurement": "CL", "setting": "Canis familiaris", "result": 9.7, "unit": "%"}, {"measurement": "bioavailability", "setting": "[12]", "result": 14, "unit": "%"}, {"measurement": "bioavailability", "setting": "[13]", "result": 91, "unit": "%"}, {"measurement": "bioavailability", "setting": "[14]", "result": 91, "unit": "%"}, {"measurement": "Activity", "setting": "Cynomolgus monkey [15]", "result": -62.4, "unit": "%"}, {"measurement": "Activity", "setting": "Cynomolgus monkey [16]", "result": -87.9, "unit": "%"}, {"measurement": "Activity", "setting": "Cynomolgus monkey [17]", "result": -92.3, "unit": "%"}, {"measurement": "inhibition", "setting": "Cynomolgus monkey [18]", "result": "Dose-dependent effect"}, {"measurement": "concentration at 0.25 h", "setting": "[19]", "result": 160, "unit": "nM"}, {"measurement": "Cp(f)", "setting": "[20]", "result": 93, "unit": "nM"}, {"measurement": "Cp(f)", "setting": "[21]", "result": 46, "unit": "nM"}, {"measurement": "concentration at 3 h", "setting": "[22]", "result": 78, "unit": "nM"}, {"measurement": "Activity", "setting": "Cynomolgus monkey [23]", "result": "Non-Toxic"}, {"measurement": "concentration at 0.25 h", "setting": "[24]", "result": 9600, "unit": "nM"}, {"measurement": "Cp(f)", "setting": "[25]", "result": 5700, "unit": "nM"}]}]}
